Experiments:
[1] = target: T1, recombinant human β-secretase (Homo sapiens, UniProt P56817); test: Determination of β-secretase inhibitory activity (BACE-1 FRET assay Kit); format: biochemical; details: for IC50: recombinant human β-secretase, fluorescent substrate peptide, 1 hour, read-out: IC50 (μM) Test example 2 (β-secretase inhibitory activity)
T1 construct: purchased Invitrogen
Procedure: Pharmacological Test Example 2: Determination of β-Secretase Inhibitory Activity
The β-secretase inhibitory activity was measured with BACE-1 FRET assay Kit (Invitrogen). The test compounds were prepared using DMSO at 30-fold of their final concentrations and dissolved so that the DMSO concentration would be 10%. To each of the solutions, an equal volume of a recombinant human β-secretase (1 U/mL) dissolved in the assay buffer and an equal volume of fluorescent substrate peptide (2.5 nM) were added and the solutions were left to stand for 1 hour. The fluorescence intensity was measured with a fluorescence plate reader (excitation wavelength: 545 nm; emission wavelength: 590 nm).
The final concentration of each compound at the time of measurement was set at 0.1, 0.3, 1, 3, and 10 μM, at 0.3, 1, 3, 10, and 30 μM, or at 1, 3, 10, 30, and 100 μM.

[2] = target: recombinant three-repeat microtubule-binding domain (3R-MBD) of tau protein (Homo sapiens, UniProt P10636); test: Determination of tau aggregation inhibitory activity (heparin-induced, thioflavin T fluorescence; electron microscope); format: biochemical; details: for IC50: 3R-MBD tau 10 μM, heparin 10 μM, 37° C. for 16 hours, thioflavin T, read-out: IC50 (μM) Test example 1 (tau aggregation inhibitory activity)
Chain of recombinant three-repeat microtubule-binding domain (3R-MBD) of tau protein (P10636 186-279 isoform P10636-2 limits assumed): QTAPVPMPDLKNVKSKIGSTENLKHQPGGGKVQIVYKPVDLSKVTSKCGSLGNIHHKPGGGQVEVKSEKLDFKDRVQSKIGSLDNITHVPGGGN
Procedure: Pharmacological Test Example 1: Determination of Tau Aggregation Inhibitory Activity
A recombinant three-repeat microtubule-binding domain (3R-MBD) of tau protein was expressed in E. coli and was purified and used for the experiment. The purified tau solution was diluted with a 50 mM Tris-HCl buffer (pH 7.6) to a final concentration of 10 μM. The test compounds were prepared using dimethylsulfoxide (DMSO) at 20-fold of their final concentrations and added to the plate so that the DMSO concentration would be 5%. Heparin was added to the plate so that the final concentration would be 10 μM and the plate was left to stand at 37° C. for 16 hours. Thioflavin T was added to the plate so that the concentration would be 10 μM and the fluorescence intensity was measured with a fluorescence plate reader (PerkinElmer, Inc.) (excitation wavelength: 440 nm; emission wavelength: 480 nm).
(§1) The final concentration of each compound at the time of measurement was set at 0.1, 0.3, 1, 3, and 10 μM. The sample to which only DMSO was added was used as a negative control and its fluorescence intensity was taken as 0% inhibitory activity.
The samples were placed on a grid and washed with distilled water. A 1 mM phosphotungstic acid aqueous solution was added to the samples. The samples were washed, dried overnight, and observed.

Aβ 1-42 = target: T2, Aβ 1-42 (Homo sapiens, UniProt P05067); test: Determination of Aβ aggregation inhibitory activity (thioflavin T fluorescence); format: biochemical; details: Aβ 1-42, 37° C. for 24 hours, thioflavin T; read-out: IC50 (μM) Test example 3 (Aβ aggregation inhibitory activity)
T2 construct: Aβ 1-42 (Peptide Institute, Inc.) was dissolved in 0.3% ammonia water; purchased Peptide Institute, Inc
T2 sequence (P05067 672-713): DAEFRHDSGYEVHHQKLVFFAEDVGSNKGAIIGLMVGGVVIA
Procedure: Pharmacological test example 3: Determination of Aβ aggregation inhibitory activity
Aβ 1-42 (Peptide Institute, Inc.) was dissolved in 0.3% ammonia water so that the concentration would be 0.5 mM and then diluted with PBS to 20 μM. The test compounds were prepared using DMSO at 100-fold of their final concentrations and adjusted so that the DMSO concentration would be 2%. The Aβ solution and each of the test compound solutions were mixed at an equivalent ratio and the mixtures were incubated at 37° C. for 24 hours. To each of the mixtures, an equal volume of a thioflavin T solution adjusted with a 100 mM Tris-glycine buffer (pH 8.5) to 6 μM was added. The fluorescence intensity was measured with a fluorescence plate reader (excitation wavelength: 440 nm; emission wavelength: 480 nm).
as §1

T1 sequence (P56817 46-501): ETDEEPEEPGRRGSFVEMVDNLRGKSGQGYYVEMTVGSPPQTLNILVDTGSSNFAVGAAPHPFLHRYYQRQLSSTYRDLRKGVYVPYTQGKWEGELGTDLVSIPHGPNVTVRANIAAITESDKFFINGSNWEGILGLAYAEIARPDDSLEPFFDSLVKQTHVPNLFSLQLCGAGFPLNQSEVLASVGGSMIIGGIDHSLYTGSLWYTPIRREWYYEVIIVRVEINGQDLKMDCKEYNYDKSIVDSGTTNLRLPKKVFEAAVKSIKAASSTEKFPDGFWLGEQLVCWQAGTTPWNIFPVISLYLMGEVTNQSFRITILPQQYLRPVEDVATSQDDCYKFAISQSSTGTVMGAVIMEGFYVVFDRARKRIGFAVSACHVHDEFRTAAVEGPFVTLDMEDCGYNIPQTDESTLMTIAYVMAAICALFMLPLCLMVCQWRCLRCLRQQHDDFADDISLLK

IC50 [1]	IC50 [2]	IC50 (Aβ 1-42)	melting point	inhibition at 1 µM ([1]; compound at 1 μM)	tau aggregation inhibitory activity at 1 μM ([2]; compound at 1 μM)	SMILES
2.85 µM	1.49 µM	3 µM	218 to 220 °C			COc1cc(OCC2CCCO2)ccc1/C=C/c1cc(/C=C/c2ccc3cc[nH]c3c2)[nH]n1 (stereo not shown) [Example 1, 3-[(1E)-2-(1H-indol-6-yl)ethenyl]-5-[(1E)-2-[2-methoxy-4-(2-tetrahydrofuranylmethoxy)phenyl]ethenyl]-1H-pyrazole]
2.9 µM		1.6 µM	202.5 to 203.5 °C			Oc1cc(OCc2ccccn2)ccc1/C=C/c1cc(/C=C/c2ccc3cc[nH]c3c2)[nH]n1 [Example 3, 3-[(1E)-2-(1H-indol-6-yl)ethenyl]-5-[(1E)-2-[2-hydroxy-4-(2-pyridylmethoxy)phenyl]ethenyl]-1H-pyrazole]
1.04 µM	1.28 µM	7.53 µM	113 to 122 °C			COc1cc(OCCN2CCOCC2)ccc1/C=C/c1cc(/C=C/c2ccc3cc[nH]c3c2)[nH]n1 [Example 27, 3-[(1E)-2-(1H-indol-6-yl)ethenyl]-5-[(1E)-2-[2-methoxy-4-(2-morpholinoethoxy)phenyl]ethenyl]-1H-pyrazole]
0.69 µM	1.57 µM	6.88 µM	135 to 142 °C			COc1cc(OCc2ccccn2)ccc1/C=C/c1cc(/C=C/c2ccc3[nH]cnc3c2)[nH]n1 [Example 31, 3-[(1E)-2-(1H-benzimidazol-5-yl)ethenyl]-5-[(1E)-2-[2-methoxy-4-(2-pyridylmethoxy)phenyl]ethenyl]-1H-pyrazole]
		0.91 µM	172 to 174 °C			COc1cc(OCc2ccccn2)ccc1/C=C/c1cc(/C=C/c2ccc3ccn(C)c3c2)[nH]n1 [Example 35, 3-[(1E)-2-[2-methoxy-4-(2-pyridylmethoxy)phenyl]ethenyl]-5-[(1E)-2-(1-methyl-1H-indol-6-yl)ethenyl]-1H-pyrazole]
		2.9 µM	150.8 to 151.6 °C			COc1cc(OCc2ccccn2)ccc1/C=C/c1cc(/C=C/c2cc3ccccc3[nH]2)[nH]n1 [Example 36, 3-[(1E)-2-(1H-indol-2-yl)ethenyl]-5-[(1E)-2-[2-methoxy-4-(2-pyridylmethoxy)phenyl]ethenyl]-1H-pyrazole]
		0.4 µM	78.1 to 80 °C			CCN(CC)c1ccc(/C=C/c2cc(/C=C/c3ccc4cc[nH]c4c3)[nH]n2)c(OCc2ccccc2)c1 [Example 37, 3-[(1E)-2-(2-benzyloxy-4-diethylaminophenyl)ethenyl]-5-[(1E)-2-(1H-indol-6-yl)ethenyl]-1H-pyrazole]
1.11 µM	3.84 µM	2.17 µM	104 to 109 °C			COc1ccc([N+](=O)[O-])c(/C=C/c2cc(/C=C/c3ccc4cc[nH]c4c3)[nH]n2)c1 [Example 58, 3-[(1E)-2-(1H-indol-6-yl)ethenyl]-5-[(1E)-2-(5-methoxy-2-nitrophenyl)ethenyl]-1H-pyrazole]
4.39 µM	1.37 µM	> 10 µM	86 to 91 °C			COc1cc(OCc2ccccc2)ccc1/C=C/c1cc(/C=C/c2ccc3cc[nH]c3c2)[nH]n1 [Example 63, 3-[(1E)-2-(4-benzyloxy-2-methoxyphenyl)ethenyl]-5-[(1E)-2-(1H-indol-6-yl)ethenyl]-1H-pyrazole]
0.22 µM	1.46 µM	2.45 µM	132 to 136 °C			CN1CCCN(c2ccc(/C=C/c3cc(/C=C/c4ccc5cc[nH]c5c4)[nH]n3)c(Br)c2)CC1 [Example 72, 3-[(1E)-2-[2-bromo-4-(4-methyl-1,4-diazepan-1-yl)phenyl]ethenyl]-5-[(1E)-2-(1H-indol-6-yl)ethenyl]-1H-pyrazole]
13.7 µM	1.26 µM	> 10 µM	218 to 220 °C			COc1cc(OCc2ccccn2)ccc1/C=C/c1cc(/C=C/c2ccc3c(c2)OCO3)[nH]n1 [Example 77, 3-[(1E)-2-(1,3-benzodioxol-5-yl)ethenyl]-5-[(1E)-2-[2-methoxy-4-(2-pyridylmethoxy)phenyl]ethenyl]-1H-pyrazole]
3.99 µM	1.04 µM	4.43 µM	229 to 237 °C			COc1cc(OCc2nccs2)ccc1/C=C/c1cc(/C=C/c2ccc3cc[nH]c3c2)[nH]n1 [Example 82, 3-[(1E)-2-(1H-indol-6-yl)ethenyl]-5-[(1E)-2-[2-methoxy-4-(1,3-thiazol-2-ylmethoxy)phenyl]ethenyl]-1H-pyrazole]
			102 to 104 °C			CCN(CC)c1ccc(/C=C/c2cc(/C=C/c3ccc4cc[nH]c4c3)[nH]n2)c(OCCN2CCCCC2)c1 [Example 97, 3-[(1E)-2-[4-diethylamino-2-[2-(1-piperidyl)ethoxy]phenyl]ethenyl]-5-[(1E)-2-(1H-indol-6-yl)ethenyl]-1H-pyrazole]
			209 to 213 °C			COc1cc(OCc2ccccn2)ccc1/C=C/c1cc(/C=C/c2c[nH]c3ccc(F)cc23)[nH]n1 [Example 99, 3-[(1E)-2-(5-fluoro-1H-indol-3-yl)ethenyl]-5-[(1E)-2-[2-methoxy-4-(2-pyridylmethoxy)phenyl]ethenyl]-1H-pyrazole]
			189 to 195 °C			COc1ccc2[nH]cc(/C=C/c3cc(/C=C/c4ccc(OCc5ccccn5)cc4OC)n[nH]3)c2c1 [Example 100, 3-[(1E)-2-(5-methoxy-1H-indol-3-yl)ethenyl]-5-[(1E)-2-[2-methoxy-4-(2-pyridylmethoxy)phenyl]ethenyl]-1H-pyrazole]
			236 to 238 °C			C(=C\c1cc(/C=C/c2ccc3cc[nH]c3c2)[nH]n1)/c1ccc(N2CCOCC2)cc1 [Example 103, 5-[(1E)-2-(1H-indol-6-yl)ethenyl]-3-[(1E)-2-(4-morpholinophenyl)ethenyl]-1H-pyrazole]
			104 to 108 °C			CCN(CC)c1ccc(/C=C/c2cc(/C=C/c3ccc4cc[nH]c4c3)[nH]n2)c(OC)c1 [Example 104, 3-[(1E)-2-(4-diethylamino-2-methoxyphenyl)ethenyl]-5-[(1E)-2-(1H-indol-6-yl)ethenyl]-1H-pyrazole]
			224 to 227 °C			CN(C)c1ccc(/C=C/c2cc(/C=C/c3ccc4cc[nH]c4c3)[nH]n2)cc1 [Example 105, 3-[(1E)-2-(4-dimethylaminophenyl)ethenyl]-5-[(1E)-2-(1H-indol-6-yl)ethenyl]-1H-pyrazole]
			201 to 204 °C			CCN(CC)c1ccc(/C=C/c2cc(/C=C/c3ccc4cc[nH]c4c3)[nH]n2)cc1 [Example 106, 3-[(1E)-2-(4-diethylaminophenyl)ethenyl]-5-[(1E)-2-(1H-indol-6-yl)ethenyl]-1H-pyrazole]
			189 to 191 °C			C(=C\c1cc(/C=C/c2ccc3cc[nH]c3c2)[nH]n1)/c1ccc(N2CCCCC2)cc1 [Example 107, 5-[(1E)-2-(1H-indol-6-yl)ethenyl]-3-[(1E)-2-[4-(1-piperidinyl)phenyl]ethenyl]-1H-pyrazole]
			143 to 146 °C	12%	0%	COc1cc(OCc2ccccn2)ccc1/C=C/c1cc(/C=C/c2ccccc2)[nH]n1 [Example 109, 3-[(1E)-2-[2-methoxy-4-(2-pyridylmethoxy)phenyl]ethenyl]-5-[(1E)-2-phenylethenyl]-1H-pyrazole]

— patent publication US9399635B2, “Pyrazole derivative” (GREEN TECH CO., LTD., priority 2011, dated 2016)
